Results from ChEMBL document CHEMBL1145198, “Checkpoint kinase inhibitors: SAR and radioprotective properties of a series of 2-arylbenzimidazoles” (J Med Chem, 2005).

Target: Serine/threonine-protein kinase Chk2 (Homo sapiens, UniProt O96017)
Experiment: Inhibition of recombinant human Chk2 kinase

Chain of Serine/threonine-protein kinase Chk2 (O96017 whole entry): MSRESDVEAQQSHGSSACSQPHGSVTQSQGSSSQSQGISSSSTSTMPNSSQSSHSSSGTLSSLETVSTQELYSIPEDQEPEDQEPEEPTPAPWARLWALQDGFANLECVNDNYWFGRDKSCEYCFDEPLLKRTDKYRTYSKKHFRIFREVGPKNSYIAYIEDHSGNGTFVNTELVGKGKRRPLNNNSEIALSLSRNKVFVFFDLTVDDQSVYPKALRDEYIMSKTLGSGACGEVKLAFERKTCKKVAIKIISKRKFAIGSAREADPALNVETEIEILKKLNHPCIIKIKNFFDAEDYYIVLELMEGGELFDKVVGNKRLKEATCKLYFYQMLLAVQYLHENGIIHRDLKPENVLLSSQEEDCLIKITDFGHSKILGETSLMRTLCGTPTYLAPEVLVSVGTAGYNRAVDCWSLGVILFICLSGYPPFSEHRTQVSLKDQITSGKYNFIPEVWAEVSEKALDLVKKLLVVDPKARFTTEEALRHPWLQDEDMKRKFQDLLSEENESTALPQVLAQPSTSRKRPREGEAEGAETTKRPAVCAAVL

IC50 [µM] | SMILES
> 10 | CN(C)C(=O)c1ccc2[nH]c(-c3ccc(Oc4ccccc4)cc3)nc2c1
> 10 | NC(=O)c1ccc2nc(-c3ccc(C(=O)Nc4ccc(Cl)c(Cl)c4)cc3)[nH]c2c1
